Key:
Galectin-3 = Galectin-3 (Homo sapiens, UniProt P17931); assay: fluorescence anisotropy assay, compound as inhibitor of galectin / fluorescein tagged saccharide probe interaction; assay type: binding
Excerpt: (§1) Anal. Biochem. 334: 36-47, (Sörme et al., 2004) and Monovalent interactions of Galectin-1 By Salomonsson, Emma; Larumbe, Amaia; Tejler, Johan; Tullberg, Erik; Rydberg, Hanna; Sundin, Anders; Khabut, Areej; Frejd, Torbjorn; Lobsanov, Yuri D.; Rini, James M.; et al, From Biochemistry (2010), 49(44), 9518-9532, (Salomonsson et al., 2010).

Galectin-1 = Galectin-1 (Homo sapiens, UniProt P09382); assay: as above; assay type: binding
Chain of Galectin-1 (P09382 whole entry): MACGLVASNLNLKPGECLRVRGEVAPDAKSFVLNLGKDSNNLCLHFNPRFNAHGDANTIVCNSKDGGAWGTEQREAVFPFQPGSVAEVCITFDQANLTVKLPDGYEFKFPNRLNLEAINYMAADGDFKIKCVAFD
Excerpt: as §1

Chain of Galectin-3 (P17931 whole entry): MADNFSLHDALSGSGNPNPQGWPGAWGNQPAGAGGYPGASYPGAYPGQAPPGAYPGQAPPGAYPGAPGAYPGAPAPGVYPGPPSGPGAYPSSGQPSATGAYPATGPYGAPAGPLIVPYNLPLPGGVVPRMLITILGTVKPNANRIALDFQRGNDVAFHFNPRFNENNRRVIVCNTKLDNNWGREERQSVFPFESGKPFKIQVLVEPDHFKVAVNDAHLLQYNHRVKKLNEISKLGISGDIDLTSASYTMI

Row | Compound | Kd (Galectin-3) [nM] | Kd (Galectin-1) [nM]
1 | CO[C@@H]1[C@@H](n2cc(-c3nc(Cl)c(Cl)s3)nn2)[C@@H](O)[C@@H](CO)O[C@@H]1Sc1cc(Br)cnc1C#N [Example 55, 5-Bromo-2-cyanopyridin-3-yl 3-[4-(4,5-dichlorothiazol-2-yl)-1H-1,2,3-triazol-1-yl]-3-deoxy-2-O-methyl-1-thio-α-D-galactopyranoside] | 28 | 150
2 | CO[C@@H]1[C@@H](n2cc(-c3nccs3)nn2)[C@@H](O)[C@@H](CO)O[C@@H]1Sc1cc(Br)ccc1C#N [Example 56, 5-Bromo-2-cyanophenyl 3-deoxy-2-O-methyl-3-[4-(2-thiazolyl)-1H-1,2,3-triazol-1-yl]-1-thio-α-D-galactopyranoside] | 2100 | 96
3 | CO[C@@H]1[C@@H](n2cc(-c3nc(Cl)cs3)nn2)[C@@H](O)[C@@H](CO)O[C@@H]1Sc1cc(Br)ccc1C#N [Example 57, 5-Bromo-2-cyanophenyl 3-[4-(4-chlorothiazol-2-yl)-1H-1,2,3-triazol-1-yl]-3-deoxy-2-O-methyl-1-thio-α-D-galactopyranoside] | 140 | 21
4 | CO[C@@H]1[C@@H](n2cc(-c3csc(O)n3)nn2)[C@@H](O)[C@@H](CO)O[C@@H]1Sc1cc(Br)ccc1C#N [Example 58, 5-Bromo-2-cyanophenyl 3-deoxy-3-[4-(2-hydroxythiazol-4-yl)-1H-1,2,3-triazol-1-yl]-2-O-methyl-1-thio-α-D-galactopyranoside] | 2000 | 22
5 | CO[C@@H]1[C@@H](n2cc(-c3csc(N)n3)nn2)[C@@H](O)[C@@H](CO)O[C@@H]1Sc1cc(Br)ccc1C#N [Example 59, 5-Bromo-2-cyanophenyl 3-[4-(2-aminothiazol-4-yl)-1H-1,2,3-triazol-1-yl]-3-deoxy-2-O-methyl-1-thio-α-D-galactopyranoside] | 2200 | 54
6 | CNC(=O)c1ccc(Br)cc1S[C@H]1OC(CO)[C@H](O)C(n2cc(-c3nc(Cl)cs3)nn2)C1OC (stereo partly drawn) [Example 60, 5-Bromo-2-(N-methyl-carbonyl)phenyl 3-[4-(4-chlorothiazol-2-yl)-1H-1,2,3-triazol-1-yl]-3-deoxy-2-O-methyl-1-thio-α-D-galactopyranoside] | 180 | 39
7 | CNC(=O)c1ccc(Br)cc1S[C@H]1OC(CO)[C@H](O)C(n2cc(-c3nccs3)nn2)C1OC (stereo partly drawn) [Example 61, 5-Bromo-2-(N-methyl-carbonyl)phenyl 3-deoxy-2-O-methyl-3-[4-(2-thiazolyl)-1H-1,2,3-triazol-1-yl]-1-thio-α-D-galactopyranoside] | 3000 | 80
8 | CNC(=O)c1ccc(Cl)cc1S[C@H]1OC(CO)[C@H](O)C(n2cc(-c3nccs3)nn2)C1OC (stereo partly drawn) [Example 62, 5-Chloro-2-(N-methyl-carbonyl)phenyl 3-deoxy-2-O-methyl-3-[4-(2-thiazolyl)-1H-1,2,3-triazol-1-yl]-1-thio-α-D-galactopyranoside] | 3100 | 78
9 | CO[C@@H]1[C@@H](n2cc(-c3nc(C)cs3)nn2)[C@@H](O)[C@@H](CO)O[C@@H]1Sc1cc(Br)ccc1C#N [Example 63, 5-Bromo-2-cyanophenyl 3-deoxy-3-[4-(4-methylthiazol-2-yl)-1H-1,2,3-triazol-1-yl]-2-O-methyl-1-thio-α-D-galactopyranoside] | 2900 | 54
10 | CO[C@@H]1[C@@H](n2cc(-c3nc(C)c(Cl)s3)nn2)[C@@H](O)[C@@H](CO)O[C@@H]1Sc1cc(Br)cnc1C#N [Example 64, 5-Bromo-2-cyanopyridin-3-yl 3-[4-(5-chloro-4-methylthiazol-2-yl)-1H-1,2,3-triazol-1-yl]-3-deoxy-2-O-methyl-1-thio-α-D-galactopyranoside] | 220 | 280
11 | CO[C@@H]1[C@@H](n2cc(-c3nc(C)c(Cl)s3)nn2)[C@@H](O)[C@@H](CO)O[C@@H]1Sc1cc(Br)ccc1C#N [Example 65, 5-Bromo-2-cyanophenyl 3-[4-(5-chloro-4-methylthiazol-2-yl)-1H-1,2,3-triazol-1-yl]-3-deoxy-2-O-methyl-1-thio-α-D-galactopyranoside] | 240 | 460
12 | CO[C@@H]1[C@@H](n2cc(-c3nccs3)nn2)[C@@H](O)[C@@H](CO)O[C@@H]1Sc1cc(Cl)ccc1Cl [Example 66, 2,5-Dichlorophenyl 3-deoxy-2-O-methyl-3-[4-(2-thiazolyl)-1H-1,2,3-triazol-1-yl]-1-thio-α-D-galactopyranoside] | 4100 | 220
13 | CO[C@@H]1[C@@H](n2cc(-c3nccs3)nn2)[C@@H](O)[C@@H](CO)O[C@@H]1Sc1cc(Br)ccc1Cl [Example 67, 5-Bromo-2-chlorophenyl 3-deoxy-2-O-methyl-3-[4-(2-thiazolyl)-1H-1,2,3-triazol-1-yl]-1-thio-α-D-galactopyranoside] | 3500 | 260
14 | CO[C@@H]1[C@@H](n2cc(-c3nccs3)nn2)[C@@H](O)[C@@H](CO)O[C@@H]1Sc1cc(Cl)ccc1F [Example 68, 5-Chloro-2-fluorophenyl 3-deoxy-2-O-methyl-3-[4-(2-thiazolyl)-1H-1,2,3-triazol-1-yl]-1-thio-α-D-galactopyranoside] | 4400 | 250
15 | CO[C@@H]1[C@@H](n2cc(-c3nc(C)cs3)nn2)[C@@H](O)[C@@H](CO)O[C@@H]1Sc1cc(Br)ccc1F [Example 69, 5-Bromo-2-fluorophenyl 3-deoxy-3-[4-(4-methylthiazol-2-yl)-1H-1,2,3-triazol-1-yl]-2-O-methyl-1-thio-α-D-galactopyranoside] | 12000 | 650
16 | N#Cc1ncc(Cl)cc1S[C@H]1O[C@H](CO)[C@H](O)[C@H](n2cc(-c3csc(Cl)n3)nn2)[C@H]1O [Example 70, 5-Chloro-2-cyanopyridin-3-yl 3-[4-(2-chlorothiazol-4-yl)-1H-1,2,3-triazol-1-yl]-3-deoxy-1-thio-α-D-galactopyranoside] | 420 | 330
17 | CCO[C@@H]1[C@@H](n2cc(-c3nccs3)nn2)[C@@H](O)[C@@H](CO)O[C@@H]1Sc1cc(Cl)cnc1C#N [Example 71, 5-Chloro-2-cyanopyridin-3-yl 3-deoxy-2-O-ethyl-3-[4-(2-thiazolyl)-1H-1,2,3-triazol-1-yl]-1-thio-α-D-galactopyranoside] | 3600 | 120
18 | CCO[C@@H]1[C@@H](n2cc(-c3csc(N)n3)nn2)[C@@H](O)[C@@H](CO)O[C@@H]1Sc1cc(Cl)cnc1C#N [Example 72, 5-Chloro-2-cyanopyridin-3-yl 3-[4-(2-aminothiazol-4-yl)-1H-1,2,3-triazol-1-yl]-3-deoxy-2-O-ethyl-1-thio-α-D-galactopyranoside] | 3000 | 440
19 | CO[C@@H]1[C@@H](n2cc(-c3csc(N)n3)nn2)[C@@H](O)[C@@H](CO)O[C@@H]1Sc1cc(Cl)ccc1C#N [Example 73, 5-Chloro-2-cyanophenyl 3-[4-(2-aminothiazol-4-yl)-1H-1,2,3-triazol-1-yl]-3-deoxy-2-O-methyl-1-thio-α-D-galactopyranoside] | 3200 | 56
20 | Nc1nc(-c2cn([C@@H]3[C@@H](O)[C@@H](Sc4cc(Cl)cnc4-c4ncc[nH]4)O[C@H](CO)[C@@H]3O)nn2)cs1 [Example 74, 5-Chloro-2-(1H-imidazol-2-yl)pyridin-3-yl 3-[4-(2-aminothiazol-4-yl)-1H-1,2,3-triazol-1-yl]-3-deoxy-1-thio-α-D-galactopyranoside] | 11300 | 360
21 | OC[C@H]1O[C@H](Sc2cc(Cl)cnc2-c2ncc[nH]2)[C@H](O)[C@@H](n2cc(-c3csc(O)n3)nn2)[C@H]1O [Example 75, 5-Chloro-2-(1H-imidazol-2-yl)pyridin-3-yl 3-deoxy-3-[4-(2-hydroxythiazol-4-yl)-1H-1,2,3-triazol-1-yl]-1-thio-α-D-galactopyranoside] | 7700 | 130
22 | CO[C@@H]1[C@@H](n2cc(-c3nc(Cl)cs3)nn2)[C@@H](O)[C@@H](CO)O[C@@H]1Sc1cc(Cl)cnc1-c1ccccn1 [Example 76, 5-Chloro-2-(pyridin-2-yl)-pyridin-3-yl 3-[4-(4-chlorothiazol-2-yl)-1H-1,2,3-triazol-1-yl]-3-deoxy-2-O-methyl-1-thio-α-D-galactopyranoside] | 150 | 10
23 | Cc1cnc(C#N)c(S[C@H]2O[C@H](CO)[C@H](O)[C@H](n3cc(-c4nc(Cl)cs4)nn3)[C@H]2O)c1 [Example 77, 2-Cyano-5-methylpyridin-3-yl 3-[4-(4-chlorothiazol-2-yl)-1H-1,2,3-triazol-1-yl]-3-deoxy-1-thio-α-D-galactopyranoside] | 860 | 830
24 | Nc1nc(-c2cn([C@H]3[C@@H](O)[C@@H](CO)O[C@H](Sc4ccc(Cl)c(Cl)c4)[C@@H]3OCC(F)(F)F)nn2)cs1 [Example 78, 3,4-Dichlorophenyl 3-[4-(2-aminothiazol-4-yl)-1H-1,2,3-triazol-1-yl]-3-deoxy-2-O-(2,2,2-trifluoroethyl)-1-thio-α-D-galactopyranoside] | 7200 | 520
25 | OC[C@H]1O[C@H](Sc2ccc(Cl)c(Cl)c2)[C@H](OCC(F)(F)F)[C@@H](n2cc(-c3csc(O)n3)nn2)[C@H]1O [Example 79, 3,4-Dichlorophenyl 3-deoxy-2-O-(2,2,2-trifluoroethyl)-3-[4-(2-hydroxythiazol-4-yl)-1H-1,2,3-triazol-1-yl]-1-thio-α-D-galactopyranoside] | 6800 | 460
26 | C#Cc1cncc(S[C@H]2O[C@H](CO)[C@H](O)[C@H](n3cc(-c4nc(Cl)cs4)nn3)[C@H]2O)c1 [Example 80, 5-Ethynylpyridin-3-yl 3-[4-(4-chlorothiazol-2-yl)-1H-1,2,3-triazol-1-yl]-3-deoxy-1-thio-α-D-galactopyranoside] | 360 | 310

Source: US12441754B2, “Galactoside inhibitor of galectins” (GALECTO BIOTECH AB, priority 2019, dated 2025)
